In US6469040B2, “Method of using cyclooxygenase-2 inhibitors in the treatment and prevention of neoplasia” (G.D. Searle & Co., priority 1997, dated 2002):

Legend:
[1] = system: LNCaP; test: LNCaP human prostate cancer cell tumors in nude mice; format: in vivo; conditions: 6 mg/kg/day in drinking water
Source text: (§1) Two human prostate cancer cell lines (PC-3 and LNCaP) were obtained (ATCC) to determine the efficacy of cyclooxygenase-2 inhibitors to inhibit tumor growth in a therapeutic model. In addition, the LNCaP cell line secretes prostate serum antigen (PSA) when grown in nude mice.
PSA level was reduced to approximately 50% as judged by western blotting.

[2] = system: PC-3 cells; test: PC-3 human prostate cancer cell tumors in nude mice; format: in vivo; conditions: 20 mg/kg/day in water from day 28, after 45 days
Protocol: as §1
PC-3 cells (10^6 cells/0.2 ml of 30% matrigel) in RPMI 1640 medium was injected on the back of nude mice. […] After 45 days, PGE2 and TXB2 were measured.

[3] = system: Lewis Lung carcinoma cells; conditions: CTX 50 mg/kg injected on days 5, 7 and 9
Protocol: Lewis Lung carcinoma cells (2.5×10^6 cells) prepared from a brei carried in C57BL/6 mice were injected subcutaneously into the hind legs of mice. […] Cyclophosphamide (CTX) was injected to mice on days 5,7 and 9 after the implantation of the tumor at a dose of 50 mg/kg. Tumor volume was determined during the study. The % inhibition was calculated as above.

| Structure (SMILES) | inhibition of growth of the tumor ([1]; day 58) [%] | PSA level reduced to ([1]; judged by western blotting) | PGE2 level reduction [2] | TXB2 level reduction [2] | Tumor Volume (Day 22) % Inhibition [3] [%] |
| --- | --- | --- | --- | --- | --- |
| NS(=O)(=O)c1ccc(-n2nc(C(F)F)cc2-c2ccc(Cl)cc2)cc1 [COX-2 inhibitor, 4-[5-(4-chlorophenyl)-3-(difluoromethyl)-1H-pyrazol-1-yl]benzenesulfonamide] | 55 | approximately 50% | 80-90% | 80-90% |  |
| O=P1(N(CCCl)CCCl)NCCCO1 (centres unmarked) [CTX, Cyclophosphamide] |  |  |  |  | 57 |
